Tested on: C. atrox venom
Test: Isolated venom exposure to FeCl3, CORM-2 or iCORM-2, then thrombelastography in human plasma (Example VI)
Type: biochemical, Crotalus atrox
Conditions: in words
Description: C. atrox venom was obtained from the National Natural Toxins Research Center at Texas A&M University-Kingsville, Tex., USA. Venom was reconstituted in calcium-free phosphate buffered saline (PBS, Sigma-Aldrich, Saint Louis, Mo., USA), and stored at −80° C. Pooled human normal plasma anticoagulated with sodium citrate was obtained from George King Bio-Medical, Overland Park, Kans., USA. Ferric chloride (FeCl3, 99.9% pure), tricarbonyldichlororuthenium (II) dimer (CORM-2), and dimethyl sulfoxide (DMSO) were obtained from Sigma-Aldrich. The final concentrations of FeCl3 (dissolved in PBS) and CORM-2 (dissolved in DMSO) were 0-10 μM and 0-100 μM, respectively; these were the concentrations used in previous works involving the effects of modifying fibrinogen prior to venom exposure in plasma.
To increase the detection of effects of iron/CO on venom activity, the concentration of venom chosen for isolated exposure and for addition to plasma was twice the amount expected to eliminate coagulation based on previous work (see, Nielsen V G, Boyer L V. Iron and carbon monoxide attenuate degradation of plasmatic coagulation by Crotalus atrox venom. Blood Coagul Fibrinolysis. In press). A 1 ml quantity of a 200 μg/ml solution of venom in PBS was prepared for each condition subsequently presented. The conditions were: 1) 1% addition (v/v) of PBS and DMSO to PBS without venom; 2) 1% addition (v/v) of PBS and DMSO to PBS with venom; 3) 1% addition of FeCl3 and CORM-2 to PBS without venom; 4) 1% addition of FeCl3 and CORM-2 to PBS […]) 1% addition of FeCl3 and DMSO to PBS with venom; 6) 1% addition of CORM-2 to PBS with venom; and lastly, 7) 1% addition of PBS and iCORM-2 to PBS with venom. After 3 min of incubation at room temperature, 3.6 μl of solution from one of these conditions was placed into 326 μl of plasma and 10 μl of tissue factor reagent (0.1% final concentration in distilled water; Diagnostica Stago S.A.S., Asnieres sur Seine, France) in a disposable cup in a computer-controlled Thrombelastograph® hemostasis system (Model 5000, Haemonetics Inc., Braintree, Mass., USA). After test solution addition, 20 μl of 200 mM CaCl2 was immediately added to initiate clotting. Data were collected at 37° C. for 15 min. […] 2014; 25(8):801-805) were determined: time to maximum rate of thrombus generation (TMRTG): this is the time interval (min) observed prior to maximum speed of clot growth; maximum rate of thrombus generation (MRTG): this is the maximum velocity of clot growth observed (dynes/cm^2/sec); and total thrombus generation (TTG, dynes/cm^2), the final viscoelastic resistance observed after clot formation. […]

[Cl][Fe]([Cl])[Cl] [iron, ferric chloride]
effects on C. atrox venom activity on plasmatic coagulation (isolated venom exposure): no appreciable effects | coagulation kinetic parameters of plasma after addition of PBS with venom exposed to the agent (venom 2 μg/ml final, 10 μM FeCl3, 100 μM CORM-2 or iCORM-2): absence of coagulation not different from samples exposed to venom alone
